Laboratory results taken from the supplement of paper PMC10307832.

Key:
Assay in all cases: relative viability (nuclei count vs DMSO), 5 days (fraction); higher = more cells survive
[1] = compound: Cc1cnc(CNC(=O)c2c(=O)c3ccc(N4CCCN(C)CC4)nc3n3c2sc2ccccc23)cn1 [CX-5461] + C[C@@H](Oc1cc(-c2cnn(C3CCNCC3)c2)cnc1N)c1c(Cl)ccc(F)c1Cl [Crizotinib] (partner 1 µM)
Summary of the method: (§1)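 Values are medians from duplicate plates. Each reflects relative viability, defined as the nuclei count of treated wells over that of vehicle wells. Lung cancer cell lines in 1536-well plates were pin-tool dosed one day after seeding with one drug alone or with a fixed anchor-drug dose plus five library-drug doses (not always all listed) in √10 steps, then fixed, stained and imaged at 4× after 5 days.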

[2] = compound: O=C(Nc1cc(C(F)(F)F)cc(C(F)(F)F)c1)c1cc(Cl)ccc1O [IMD-0354] + CC(=O)Nc1cccc(-n2c(=O)n(C3CC3)c(=O)c3c(Nc4ccc(I)cc4F)n(C)c(=O)c(C)c32)c1 [Trametinib] (partner 0.02 µM)
Summary of the method: as §1

[3] = compound: O=C(Nc1cc(C(F)(F)F)cc(C(F)(F)F)c1)c1cc(Cl)ccc1O [IMD-0354] + O=C(CCCCCCC(=O)Nc1ccccc1)NO [Vorinostat] (partner 1 µM)
Summary of the method: as §1

[4] = compound: O=C(Nc1cc(C(F)(F)F)cc(C(F)(F)F)c1)c1cc(Cl)ccc1O [IMD-0354] + CC(=O)c1c(C)c2cnc(Nc3ccc(N4CCNCC4)cn3)nc2n(C2CCCC2)c1=O [Palbociclib] (partner 0.5 µM)
Summary of the method: as §1

Q: UMC-11 was tested. Which relative viability ([1]; first compound 0.01 µM) did it give?
A: Its relative viability is 0.63.

Q: What about the relative viability ([1]; first compound 0.03162 µM) of the same cell line?
A: The relative viability was 0.655.

Q: What about the relative viability ([1]; first compound 0.1 µM) of the same cell line?
A: Its relative viability is 0.694.

Q: What about the relative viability ([1]; first compound 0.3162 µM) of the same cell line?
A: Its relative viability is 0.607.

Q: And the relative viability ([1]; first compound 1 µM)?
A: Its relative viability is 0.153.

Q: What about the relative viability ([2]; first compound 0.04 µM) of the same cell line?
A: The relative viability was 0.745.

Q: What about the relative viability ([2]; first compound 0.1265 µM) of the same cell line?
A: Its relative viability is 0.808.

Q: And the relative viability ([2]; first compound 0.4 µM)?
A: Its relative viability is 0.337.

Q: What about the relative viability ([2]; first compound 1.265 µM) of the same cell line?
A: Its relative viability is 0.194.

Q: And the relative viability ([2]; first compound 4 µM)?
A: The relative viability was 0.246.

Q: What about the relative viability ([3]; first compound 0.04 µM) of the same cell line?
A: The relative viability was 0.39.

Q: And the relative viability ([3]; first compound 0.1265 µM)?
A: The relative viability was 0.407.

Q: And the relative viability ([3]; first compound 0.4 µM)?
A: The relative viability was 0.278.

Q: And the relative viability ([3]; first compound 1.265 µM)?
A: The relative viability was 0.189.

Q: What about the relative viability ([3]; first compound 4 µM) of the same cell line?
A: The relative viability was 0.239.

Q: What about the relative viability ([4]; first compound 0.04 µM) of the same cell line?
A: The relative viability was 0.344.

Q: What about the relative viability ([4]; first compound 0.1265 µM) of the same cell line?
A: The relative viability was 0.303.

Q: What about the relative viability ([4]; first compound 0.4 µM) of the same cell line?
A: The relative viability was 0.323.

Q: And the relative viability ([4]; first compound 1.265 µM)?
A: The relative viability was 0.215.

Q: And the relative viability ([4]; first compound 4 µM)?
A: The relative viability was 0.18.
